What was measured:
[1] = test system: Mouse embryonic skin fibroblast (MEF) cells; assay: Conversion (reprogramming) of MEF cells into stem-like cells in defined medium; type: cell-based
Protocol: MEF medium: DMEM (Invitrogen 11965-092) supplemented with 10% FBS (16000-044), 100 U/mL penicillin streptomycin (15140-122). Defined medium (Modified/Supplemented SR medium): 400 ml DMEM/F12 (Invitrogen 11330-032), 5 ml non-Essential Amino Acids (Invitrogen 11140-050), 2.5 ml L-Glutamine (Invitrogen 25030-018), 0.1 mM β-mercaptoethanol (Sigma 7522, add 3.5 μl) and 100 ml Knockout Serum Replacer (Invitrogen 10828-028). 4 ng/mL bFGF (13256-029), 1000/ml unit of ESGRO™ (Lif) (Chemicon Cat #ESG1107). For each experiment, the necessary amount of defined medium was aliquoted, and then freshly prepared bFGF and Lif were added to the medium each time just in advance of use. (Lif was used as a component of such medium for mouse cell culture only.) FGF stock was made by adding 1 ml of DMEM/F12 to a vial of 10 μg of FGF, with the 10 μg of FGF dissolved in the DMEM/F12 and then aliquoted into five vials. Stock vials were then stored at −20° C. For each 30 ml of defined medium, 12 μl of the stock bFGF was added. Arachidonic acid (AA) stock was made by dissolving 10 mg of AA (from porcine liver A3555-10M Sigma) in 1 ml of DMSO. Dissolved AA was then aliquoted into five vials, and then store at −20° C. ([…]). Before use in defined medium, the 10 mg/ml AA was diluted with 1×PBS at a 1:5 ratio. […]

skin fibroblasts = settings: SR reconstituted while eliminating individual supplements; cited from earlier work
skin fibroblast cells = settings: thapsigargin 1 μg/ml in SR-containing medium; cited from earlier work
[2] = test system: fibroblast growth factor receptor 3 (FGFR3); settings: thapsigargin 1 μg/ml in SR-containing medium; cited from earlier work
ES-like cells = settings: bFGF (4 ng/ml) and Lif added together to SR-containing medium; cited from earlier work

## CCCCC/C=C\C/C=C\C/C=C\C/C=C\CCCC(=O)O [arachidonic acid, all-cis 5,8,11,14-eicosatetraenoic acid]
[1]; arachidonic acid 2 mg/L added to defined medium, in isolation or together with pluronic F68
  conversion efficiency of somatic cells: increase the conversion efficiency
Skin fibroblasts
  role of SR component in reprogramming somatic cells (e.g., fibroblasts) into stem-like cells: critical components

## lipid-rich BSA: lipid-rich BSA (AlbuMax I, Invitrogen), component of serum replacement
Skin fibroblasts
  role of SR component in reprogramming somatic cells (e.g., fibroblasts) into stem-like cells: critical components

## C/C=C(/C)C(=O)O[C@H]1C(C)=C2[C@H]([C@@H]1OC(=O)CCCCCCC)[C@@](C)(OC(C)=O)C[C@H](OC(=O)CCC)[C@@]1(O)[C@H]2OC(=O)[C@@]1(C)O [Thapsigargin]
Skin fibroblast cells
  conversion of skin fibroblast cells into stem cell-like cells: prevented
[2]
  up-regulated expression of FGFR3: prevented

## bFGF: basic fibroblast growth factor
[1]; freshly prepared, bFGF 4 ng/mL and Lif 1000/ml unit added to defined medium immediately prior to every conversion or passage
  efficient reprogramming of MEF cells to stem-like cells: important to ensuring efficient reprogramming
ES-like cells
  differentiation of the ES-like cells: preventing differentiation
  division of the ES-like cells: promote division
